# Values joined by “and” are separate entries in the source; they are usually repeats but may differ in a detail not shown here. Equal entries are not always repeated. Active and inactive are the calls of the source.
# Tests used:
# SUMO E1/E2 = SUMO E1/E2 (Homo sapiens, UniProt P63279+Q9UBE0+Q9UBT2); test: SAR analysis of SUMOylation using HTRF in an in-Vitro dose response assay. [Related pubchem assays (depositor defined):AID2006, AID2011, AID2018, AID2069, AID2658]; format: functional
# [1] = Luminescence Cell-Based Dose Retest to Confirm Inhibitors of Cancer Stem Cells. [Related pubchem assays (depositor defined):AID2717, AID2721]; format: functional; settings: Homo sapiens
# [2] = cytotoxicity in HMLE control line with eGFP shRNA, dose response, counter-screen for HMLE_sh_ECad selective toxicity project, cell-based, HMLE_sh_eGFP, luminescence (AID 463074); format: functional, Homo sapiens;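 note: HMLE human mammary epithelial cells expressing control shRNA against eGFP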
# INS1 [3] = test: beta cell apoptosis inhibitors, cytokine rescue, dose response, luminescence, retest (AID 449756); format: functional, cell-based; settings: Rattus norvegicus;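 note: cell death triggered by IL-1 beta plus TNF-alpha plus IFN-gamma mixture; protective hits raise ATP signal compared with cytokine alone wells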
# [4] = Luminescence Cell-Based/Microorganism Confirmation at Dose of Inhibitors of Trypanosoma cruzi Infection. [Related pubchem assays: 1885, 1968 ]; format: functional
# [5] = inhibitors of intracellular T. cruzi replication, confirmation, NIH3T3 host cells, beta-gal luminescence (AID 2044); format: functional, cell-based;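 note: intracellular parasites grown in NIH/3T3 mouse fibroblasts as host cells; luminescent beta-galactosidase reporter signal from transgenic T. cruzi replicating inside host cells; inhibitors lower the luminescence signal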
# [6] = Luminescence Cell-Based Secondary HTS screen to identify cytotoxic compounds of NIH3T3 cells. [Related pubchem assays: 1885, 1968 ]; format: functional
# [7] = cytotoxicity toward NIH3T3 fibroblasts, dose response, counter-screen, cell-based, ATP luminescence, mouse fibroblasts (AID 2010); format: functional;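 note: cells exposed to compound for about 90 hours before reading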
# [8] = inhibitors of Trypanosoma cruzi host-cell infection, confirmation, beta-gal luminescence, NIH3T3 host cells (AID 2630); format: functional, cell-based; settings: Mus musculus
# Streptokinase A = target: T1, Streptokinase A (Streptococcus pyogenes serotype M1, UniProt P10520); test: S. pyogenes streptokinase expression inhibitors, potency, dose response, plasminogen activation absorbance, OD405 (AID 1914); format: functional, Streptococcus pyogenes M1 GAS;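 note: secreted streptokinase activity via plasminogen activation per viability signal from cell pellet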
# T1 sequence (P10520 whole entry): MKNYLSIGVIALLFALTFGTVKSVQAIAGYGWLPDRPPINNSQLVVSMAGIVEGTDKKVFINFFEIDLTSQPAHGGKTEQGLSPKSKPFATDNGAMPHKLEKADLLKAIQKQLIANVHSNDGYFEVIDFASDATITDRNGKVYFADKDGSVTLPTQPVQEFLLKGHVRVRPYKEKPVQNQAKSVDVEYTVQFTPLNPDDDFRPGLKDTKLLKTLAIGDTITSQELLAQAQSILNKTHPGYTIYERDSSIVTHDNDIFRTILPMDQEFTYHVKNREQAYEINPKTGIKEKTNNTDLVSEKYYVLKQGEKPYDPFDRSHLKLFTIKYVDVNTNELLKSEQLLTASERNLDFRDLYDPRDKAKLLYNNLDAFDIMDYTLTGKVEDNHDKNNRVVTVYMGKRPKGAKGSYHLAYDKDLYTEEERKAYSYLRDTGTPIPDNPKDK
# [9] = target: T2, Intestinal-type alkaline phosphatase (Mus musculus, UniProt P24822); test: PubChem AID 488875; format: functional
# T2 sequence (P24822 whole entry): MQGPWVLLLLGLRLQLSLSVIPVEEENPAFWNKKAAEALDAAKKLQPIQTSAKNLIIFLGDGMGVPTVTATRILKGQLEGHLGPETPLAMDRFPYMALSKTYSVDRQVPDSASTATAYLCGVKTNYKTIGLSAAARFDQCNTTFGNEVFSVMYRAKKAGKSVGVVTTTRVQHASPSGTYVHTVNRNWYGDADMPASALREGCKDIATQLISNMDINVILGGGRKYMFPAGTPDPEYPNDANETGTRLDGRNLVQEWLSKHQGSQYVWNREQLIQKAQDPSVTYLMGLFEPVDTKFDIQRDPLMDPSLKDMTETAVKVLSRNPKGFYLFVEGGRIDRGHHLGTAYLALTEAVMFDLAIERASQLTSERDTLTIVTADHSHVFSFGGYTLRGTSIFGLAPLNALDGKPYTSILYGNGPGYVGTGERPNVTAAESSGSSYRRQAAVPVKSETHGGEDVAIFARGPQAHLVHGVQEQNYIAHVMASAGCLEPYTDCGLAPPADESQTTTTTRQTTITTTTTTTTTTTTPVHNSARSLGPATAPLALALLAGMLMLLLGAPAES
# [10] = target: T3, Intestinal-type alkaline phosphatase (Homo sapiens, UniProt P09923); test: human intestinal alkaline phosphatase activators, dose response, biochemical, luminescence, uHTS hits (AID 463120); format: functional
# T3 sequence (P09923 whole entry): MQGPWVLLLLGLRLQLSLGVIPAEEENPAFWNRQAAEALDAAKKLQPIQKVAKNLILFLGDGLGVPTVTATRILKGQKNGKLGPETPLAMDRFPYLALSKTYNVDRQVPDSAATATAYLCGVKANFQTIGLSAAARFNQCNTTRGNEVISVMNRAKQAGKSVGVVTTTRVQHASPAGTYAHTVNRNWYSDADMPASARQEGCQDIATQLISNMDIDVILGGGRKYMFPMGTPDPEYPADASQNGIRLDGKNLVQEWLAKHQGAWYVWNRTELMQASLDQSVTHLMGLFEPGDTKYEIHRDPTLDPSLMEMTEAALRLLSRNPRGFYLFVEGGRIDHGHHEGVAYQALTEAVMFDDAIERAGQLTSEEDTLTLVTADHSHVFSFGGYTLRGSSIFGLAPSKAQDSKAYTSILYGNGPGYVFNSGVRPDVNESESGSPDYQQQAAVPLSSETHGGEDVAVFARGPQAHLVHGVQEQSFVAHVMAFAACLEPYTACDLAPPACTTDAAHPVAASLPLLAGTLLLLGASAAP
# [11] = target: T3, Intestinal-type alkaline phosphatase; test: human IAP activators, dose response, biochemical, luminescent, uHTS hits, set 2 (AID 488817); format: functional;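 note: potency of activators that raise enzyme activity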
# [12] = target: T4, Alkaline phosphatase, tissue-nonspecific isozyme (Homo sapiens, UniProt P05186); test: TNAP enzyme activators, dose response, selectivity assay for human IAP activator project, biochemical, TNAP isozyme, human IAP uHTS hits (AID 488886); format: functional;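 note: potency of compounds raising TNAP activity as a selectivity check on IAP activators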
# T4 sequence (P05186 whole entry): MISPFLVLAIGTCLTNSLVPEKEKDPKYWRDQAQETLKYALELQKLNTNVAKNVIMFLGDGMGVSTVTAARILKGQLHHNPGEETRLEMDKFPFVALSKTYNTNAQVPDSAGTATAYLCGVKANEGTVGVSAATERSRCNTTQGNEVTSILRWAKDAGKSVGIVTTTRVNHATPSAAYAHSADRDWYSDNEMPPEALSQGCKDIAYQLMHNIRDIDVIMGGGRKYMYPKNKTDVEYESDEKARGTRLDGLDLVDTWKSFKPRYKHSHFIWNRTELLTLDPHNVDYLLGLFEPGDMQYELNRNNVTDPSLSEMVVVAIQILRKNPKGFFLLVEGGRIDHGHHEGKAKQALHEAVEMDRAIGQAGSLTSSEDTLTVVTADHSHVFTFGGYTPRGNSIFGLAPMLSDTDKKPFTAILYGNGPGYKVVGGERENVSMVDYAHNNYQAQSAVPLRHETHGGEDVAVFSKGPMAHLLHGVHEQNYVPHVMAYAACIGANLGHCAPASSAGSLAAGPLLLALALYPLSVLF
# Trypsin = Trypsin (Sus scrofa, UniProt P00761); test: porcine trypsin inhibitors, dose response, selectivity assay for Rce1 protease inhibitor project, biochemical, quenched peptide fluorescence, cherry-pick (AID 488789)
# CAAX prenyl protease 2 = target: T5, CAAX prenyl protease 2 (Saccharomyces cerevisiae S288c, UniProt Q03530); format: biochemical
# T5 sequence (Q03530 whole entry): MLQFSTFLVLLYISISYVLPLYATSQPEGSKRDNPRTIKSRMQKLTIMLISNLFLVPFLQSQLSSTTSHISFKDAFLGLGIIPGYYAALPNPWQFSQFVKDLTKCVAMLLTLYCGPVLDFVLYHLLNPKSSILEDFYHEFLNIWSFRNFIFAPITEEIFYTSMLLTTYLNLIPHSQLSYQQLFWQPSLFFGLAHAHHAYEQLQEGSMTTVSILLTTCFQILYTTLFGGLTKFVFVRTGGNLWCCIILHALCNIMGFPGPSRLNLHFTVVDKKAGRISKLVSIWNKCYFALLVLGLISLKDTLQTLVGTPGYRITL
# CAAX prenyl protease 1 = CAAX prenyl protease 1 (Saccharomyces cerevisiae S288c, UniProt P47154); test: Ste24 protease inhibitors, dose response, biochemical, S. cerevisiae, plate reader, cherry-pick (AID 488815)
# Sequence of CAAX prenyl protease 1 (P47154 whole entry): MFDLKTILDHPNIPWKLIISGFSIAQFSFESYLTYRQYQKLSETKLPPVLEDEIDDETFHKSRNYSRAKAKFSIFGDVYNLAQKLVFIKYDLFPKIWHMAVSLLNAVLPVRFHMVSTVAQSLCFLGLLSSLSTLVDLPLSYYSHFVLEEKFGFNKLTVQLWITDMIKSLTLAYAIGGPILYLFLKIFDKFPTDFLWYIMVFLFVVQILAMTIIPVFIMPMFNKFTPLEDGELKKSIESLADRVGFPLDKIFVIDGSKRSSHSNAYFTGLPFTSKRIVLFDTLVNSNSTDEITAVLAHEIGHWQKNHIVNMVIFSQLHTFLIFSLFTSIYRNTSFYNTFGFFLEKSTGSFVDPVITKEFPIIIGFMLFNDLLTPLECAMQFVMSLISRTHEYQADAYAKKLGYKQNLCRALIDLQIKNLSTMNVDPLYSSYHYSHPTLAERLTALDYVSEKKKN
# INS1 [13] = test: protection of INS-1E cells from cytokine death, dose response, ATP luminescence, dry powder (AID 488844); format: functional, cell-based; settings: Rattus norvegicus
# [14] = target: T6, Mannose-6-phosphate isomerase (Homo sapiens, UniProt P34949); test: Confirmation of compounds inhibiting phosphomannose isomerase (PMI) via a fluorescence intensity assay using a high concentration of mannose 6-phosphate. [Related pubchem assays (depositor defined):AID1209, AID1220, AID1545, AID1553, AID1620]
# T6 sequence (P34949 whole entry): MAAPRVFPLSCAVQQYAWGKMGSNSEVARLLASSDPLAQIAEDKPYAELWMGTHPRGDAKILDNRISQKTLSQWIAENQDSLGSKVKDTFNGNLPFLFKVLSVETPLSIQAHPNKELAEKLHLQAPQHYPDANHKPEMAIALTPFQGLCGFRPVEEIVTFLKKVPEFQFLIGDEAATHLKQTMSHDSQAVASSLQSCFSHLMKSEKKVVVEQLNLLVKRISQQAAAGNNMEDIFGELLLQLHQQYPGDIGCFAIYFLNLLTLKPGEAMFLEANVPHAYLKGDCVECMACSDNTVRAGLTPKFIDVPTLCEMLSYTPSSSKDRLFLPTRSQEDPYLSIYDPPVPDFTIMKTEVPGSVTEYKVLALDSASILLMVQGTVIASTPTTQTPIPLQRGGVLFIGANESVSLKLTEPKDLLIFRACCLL
# [15] = target: T6, Mannose-6-phosphate isomerase; test: PMI enzyme inhibitors, confirmation, biochemical, fluorescence intensity (AID 1535)
# Phosphomannomutase 2 = Phosphomannomutase 2 (Homo sapiens, UniProt O15305); test: Counter screen SAR assay for PMM2 inhibitors via a fluorescence intensity assay. [Related pubchem assays (depositor defined):AID1545, AID1574]
# [16] = target: Lysine-specific demethylase 4C (Homo sapiens, UniProt Q9H3R0); test: GASC-1 (JMJD2C) histone demethylase inhibitors, dose response, biochemical, DELFIA europium, cherry-picked samples (AID 488835); format: functional
# Sequence of Lysine-specific demethylase 4C (Q9H3R0 whole entry): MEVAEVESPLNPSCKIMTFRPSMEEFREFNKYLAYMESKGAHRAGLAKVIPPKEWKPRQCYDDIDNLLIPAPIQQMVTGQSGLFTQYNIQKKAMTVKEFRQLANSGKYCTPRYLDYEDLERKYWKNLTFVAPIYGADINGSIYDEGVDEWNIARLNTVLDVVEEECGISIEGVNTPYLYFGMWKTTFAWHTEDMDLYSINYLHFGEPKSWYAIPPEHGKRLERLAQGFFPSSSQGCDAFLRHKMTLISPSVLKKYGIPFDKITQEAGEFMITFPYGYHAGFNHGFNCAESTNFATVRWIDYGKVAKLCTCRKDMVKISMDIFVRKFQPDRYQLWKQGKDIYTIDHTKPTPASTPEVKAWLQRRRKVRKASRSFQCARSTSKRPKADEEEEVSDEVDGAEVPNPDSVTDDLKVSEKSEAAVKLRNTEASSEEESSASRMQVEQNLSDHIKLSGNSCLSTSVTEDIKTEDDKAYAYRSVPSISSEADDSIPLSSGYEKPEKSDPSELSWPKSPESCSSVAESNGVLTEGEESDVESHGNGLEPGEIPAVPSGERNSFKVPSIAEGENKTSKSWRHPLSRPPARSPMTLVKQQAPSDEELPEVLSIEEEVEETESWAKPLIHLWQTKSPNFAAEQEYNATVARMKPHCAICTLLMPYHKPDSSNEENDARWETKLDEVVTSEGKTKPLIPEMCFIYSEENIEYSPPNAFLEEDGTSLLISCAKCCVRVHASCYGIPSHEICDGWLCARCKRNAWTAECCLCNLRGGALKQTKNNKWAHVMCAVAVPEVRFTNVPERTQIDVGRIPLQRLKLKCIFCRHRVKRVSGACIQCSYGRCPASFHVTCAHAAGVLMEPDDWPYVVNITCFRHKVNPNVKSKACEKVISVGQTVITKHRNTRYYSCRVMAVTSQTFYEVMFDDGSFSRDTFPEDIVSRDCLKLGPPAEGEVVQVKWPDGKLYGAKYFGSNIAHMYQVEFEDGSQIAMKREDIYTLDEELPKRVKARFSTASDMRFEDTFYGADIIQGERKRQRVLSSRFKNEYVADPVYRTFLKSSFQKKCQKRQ
# [17] = target: T2, Intestinal-type alkaline phosphatase; test: PubChem AID 488785; format: functional
# [18] = target: T4, Alkaline phosphatase, tissue-nonspecific isozyme; test: TNAP enzyme inhibition by screening hits, dose response, selectivity assay for mouse IAP inhibitor project, biochemical, human TNAP, uHTS hits (AID 488906); format: functional
# [19] = target: T3, Intestinal-type alkaline phosphatase; test: inhibition of human intestinal alkaline phosphatase – biochemical, dose response (AID 488876); format: functional
# Cytochrome P450 1A2 = target: T7, Cytochrome P450 1A2 (Homo sapiens, UniProt P05177);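 note: PubChem cytochrome P450 panel assay, CYP1A2 panel member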
# T7 sequence (P05177 whole entry): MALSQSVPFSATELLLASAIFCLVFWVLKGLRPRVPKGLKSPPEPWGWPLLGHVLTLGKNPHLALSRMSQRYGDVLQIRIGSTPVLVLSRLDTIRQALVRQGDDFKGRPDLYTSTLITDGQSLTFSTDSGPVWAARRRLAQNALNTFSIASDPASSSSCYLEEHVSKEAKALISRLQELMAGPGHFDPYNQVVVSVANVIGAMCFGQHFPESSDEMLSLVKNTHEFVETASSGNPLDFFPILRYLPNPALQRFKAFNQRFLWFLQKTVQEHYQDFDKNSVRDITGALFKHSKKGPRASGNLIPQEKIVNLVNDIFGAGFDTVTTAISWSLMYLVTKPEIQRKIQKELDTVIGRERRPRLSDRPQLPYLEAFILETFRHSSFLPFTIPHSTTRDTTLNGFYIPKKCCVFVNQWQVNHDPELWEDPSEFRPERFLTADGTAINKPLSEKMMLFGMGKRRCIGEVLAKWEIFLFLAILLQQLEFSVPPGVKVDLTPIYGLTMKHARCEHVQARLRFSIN
# Cytochrome P450 2C9 = Cytochrome P450 2C9 (Homo sapiens, UniProt P11712)
# HEK293 [20] = test: NOD1 signaling inhibitors, primary screen, cell-based, luminescence, uHTS (AID 1578); format: functional; settings: Homo sapiens
# HEK293 [21] = test: cells; format: functional, cell-based; settings: Homo sapiens
# HEK293 [22] = test: cells; format: functional, cell-based; settings: Homo sapiens; remark: listed apart in the source
# HEK293 [23] = test: NOD2 signaling inhibitors in MDP-stimulated cells, cell-based, uHTS, luminescence (AID 2001); format: functional; settings: Homo sapiens
# Tumor necrosis factor = Tumor necrosis factor (Homo sapiens, UniProt P01375); test: TNFa-triggered NF-kB activation inhibitors, SAR follow-up, cell-based, revised (AID 2337); format: functional
# Sequence of Tumor necrosis factor (P01375 whole entry, the tested form may be a part): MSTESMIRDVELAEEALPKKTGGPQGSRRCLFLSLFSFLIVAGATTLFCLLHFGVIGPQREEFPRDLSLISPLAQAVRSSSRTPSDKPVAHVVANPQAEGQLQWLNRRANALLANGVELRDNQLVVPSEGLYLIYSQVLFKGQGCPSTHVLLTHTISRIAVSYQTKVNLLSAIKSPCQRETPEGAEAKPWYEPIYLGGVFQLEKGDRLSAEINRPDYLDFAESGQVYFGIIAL
# [24] = target: Nucleotide-binding oligomerization domain-containing protein 1 (Homo sapiens, UniProt Q9Y239); test: NOD1 signaling inhibitors, SAR follow-up, revised (AID 2333); format: functional
# Sequence of Nucleotide-binding oligomerization domain-containing protein 1 (Q9Y239 whole entry, the tested form may be a part): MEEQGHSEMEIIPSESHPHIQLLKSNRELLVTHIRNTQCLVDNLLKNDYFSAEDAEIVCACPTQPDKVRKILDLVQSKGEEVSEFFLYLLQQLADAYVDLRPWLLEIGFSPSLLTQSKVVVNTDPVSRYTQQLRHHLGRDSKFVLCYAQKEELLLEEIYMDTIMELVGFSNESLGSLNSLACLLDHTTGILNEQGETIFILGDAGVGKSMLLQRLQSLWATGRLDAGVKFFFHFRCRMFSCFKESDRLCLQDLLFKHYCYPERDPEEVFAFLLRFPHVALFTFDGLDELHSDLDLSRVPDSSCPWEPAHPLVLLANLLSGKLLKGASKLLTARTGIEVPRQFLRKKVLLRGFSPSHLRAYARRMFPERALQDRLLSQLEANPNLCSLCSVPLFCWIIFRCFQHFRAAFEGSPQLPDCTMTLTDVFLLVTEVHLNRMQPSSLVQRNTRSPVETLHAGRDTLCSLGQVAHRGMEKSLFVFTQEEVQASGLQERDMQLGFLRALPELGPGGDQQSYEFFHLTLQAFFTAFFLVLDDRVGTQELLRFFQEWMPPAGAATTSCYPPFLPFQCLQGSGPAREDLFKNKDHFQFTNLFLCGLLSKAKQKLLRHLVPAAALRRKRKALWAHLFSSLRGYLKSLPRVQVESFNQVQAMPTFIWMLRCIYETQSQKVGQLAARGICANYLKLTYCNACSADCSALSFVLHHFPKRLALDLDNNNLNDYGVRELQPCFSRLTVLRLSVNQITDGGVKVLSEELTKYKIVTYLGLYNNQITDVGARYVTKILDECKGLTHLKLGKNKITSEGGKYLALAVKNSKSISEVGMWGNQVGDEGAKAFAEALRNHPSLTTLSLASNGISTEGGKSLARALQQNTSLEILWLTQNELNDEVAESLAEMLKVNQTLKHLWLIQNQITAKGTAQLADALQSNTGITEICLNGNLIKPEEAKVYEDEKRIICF
# [25] = target: T8, Sentrin-specific protease 8 (Homo sapiens, UniProt Q96LD8); format: functional
# T8 sequence (Q96LD8 whole entry): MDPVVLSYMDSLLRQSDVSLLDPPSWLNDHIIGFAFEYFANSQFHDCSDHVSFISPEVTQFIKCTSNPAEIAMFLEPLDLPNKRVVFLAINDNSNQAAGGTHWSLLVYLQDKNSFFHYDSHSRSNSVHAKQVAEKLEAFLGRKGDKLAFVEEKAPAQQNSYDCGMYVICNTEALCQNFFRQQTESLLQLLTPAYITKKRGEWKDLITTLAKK
# [26] = target: T8, Sentrin-specific protease 8; format: functional; remark: listed apart in the source
# HEK293 [27] = test: cells; settings: Homo sapiens
# Phospholipase D2 = Phospholipase D2 (Homo sapiens, UniProt O14939); test: PLD2 inhibitor potency in cells, dose response (AID 602147); format: functional;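 note: cellular assay in HEK293 cells overexpressing GFP-tagged PLD2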
# Sequence of SUMO E1/E2 (Q9UBE0 whole entry): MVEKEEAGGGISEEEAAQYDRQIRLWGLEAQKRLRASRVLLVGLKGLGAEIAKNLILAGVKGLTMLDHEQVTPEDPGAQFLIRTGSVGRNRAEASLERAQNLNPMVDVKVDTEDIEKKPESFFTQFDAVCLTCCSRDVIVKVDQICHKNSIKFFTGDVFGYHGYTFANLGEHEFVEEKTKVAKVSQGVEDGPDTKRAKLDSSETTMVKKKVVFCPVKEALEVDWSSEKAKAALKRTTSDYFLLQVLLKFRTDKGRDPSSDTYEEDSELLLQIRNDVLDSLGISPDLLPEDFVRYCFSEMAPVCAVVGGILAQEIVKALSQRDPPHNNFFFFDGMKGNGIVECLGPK
# Sequence of SUMO E1/E2 (Q9UBT2 whole entry): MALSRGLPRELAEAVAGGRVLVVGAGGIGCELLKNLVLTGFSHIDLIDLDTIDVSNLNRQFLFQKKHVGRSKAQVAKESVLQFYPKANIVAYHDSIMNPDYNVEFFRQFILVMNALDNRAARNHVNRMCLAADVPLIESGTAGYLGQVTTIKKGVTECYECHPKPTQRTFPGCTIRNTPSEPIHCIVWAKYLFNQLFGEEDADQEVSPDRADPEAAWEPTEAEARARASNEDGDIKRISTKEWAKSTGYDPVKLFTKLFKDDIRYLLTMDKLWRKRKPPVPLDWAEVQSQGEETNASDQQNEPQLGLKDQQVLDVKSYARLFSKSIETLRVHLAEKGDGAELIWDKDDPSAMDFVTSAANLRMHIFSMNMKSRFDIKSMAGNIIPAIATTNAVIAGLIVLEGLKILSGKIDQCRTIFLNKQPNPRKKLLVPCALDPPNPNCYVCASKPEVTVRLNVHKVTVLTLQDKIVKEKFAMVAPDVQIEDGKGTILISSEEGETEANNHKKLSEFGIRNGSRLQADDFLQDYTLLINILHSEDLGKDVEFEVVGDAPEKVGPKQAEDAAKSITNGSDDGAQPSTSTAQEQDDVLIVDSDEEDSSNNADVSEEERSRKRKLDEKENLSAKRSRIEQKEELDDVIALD
# Sequence of SUMO E1/E2 (P63279 whole entry): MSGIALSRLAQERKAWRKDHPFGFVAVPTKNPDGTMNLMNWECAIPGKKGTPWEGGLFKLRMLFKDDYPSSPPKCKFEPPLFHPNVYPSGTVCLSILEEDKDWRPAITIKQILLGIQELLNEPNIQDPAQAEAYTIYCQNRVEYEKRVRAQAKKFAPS
structure (smiles),measurement,setting,value
C/C(=N\OCc1nc2ccccc2c(=O)n1/N=C/c1ccccc1O)c1ccccc1,IC50,SUMO E1/E2,29.2 µM (active)
c1ccc(N2CCN(CC3CCCCC3)CC2)cc1,AC50,[1],25.3 µM (active)
same,AC50,[2],95.2 µM (active)
same,AC50,INS1 [3],91.4 µM (active)
CCOc1ccc2oc(=O)cc(CN3CCN(Cc4ccccc4)CC3)c2c1,EC50,[4],0.903 µM (inconclusive)
same,EC50,[5],0.216 µM (active)
same,EC50,[6],> 195 µM (inconclusive)
same,EC50,[7],> 30 µM (not active)
same,EC50,[8],0.903 µM (active)
CCC(NC(=S)NC1CCCCC1)c1ccc(C(C)C)cc1 (configuration not stated),EC50,Streptokinase A,43.4 µM (active)
same,EC50,[9],60.1 µM (active)
same,EC50,[10],81.2 µM (active)
same,EC50,[11],52.4 µM (active)
same,EC50,[12],54.3 µM (active)
CCOc1ccc(C2C(C(=O)OC)=CN(C(C)c3ccccc3)C=C2C(=O)OC)cc1 (configuration not stated),AC50,Trypsin,5.7 µM (active)
same,AC50,CAAX prenyl protease 2,> 100 µM (inactive)
same,AC50,CAAX prenyl protease 1,5.08 µM (active)
COc1ccc(S(=O)(=O)N(C)C[C@@H]2Oc3c(NS(=O)(=O)c4ccc(C)cc4)cccc3C(=O)N([C@@H](C)CO)C[C@H]2C)cc1,AC50,INS1 [13],> 235 µM (inactive)
COc1ccc2c(=O)n(C3CCCC3)sc2c1,IC50,[14],> 100 µM (inactive)
same,IC50,[15],86.8 µM (active)
same,IC50,Phosphomannomutase 2,> 100 µM (inactive)
COc1ccccc1N1CCN(C(=O)CSc2nc(C)cc(O)n2)CC1,AC50,[16],10.1 µM (active)
CCn1nc(C)c(CN2CCC(C(=O)Nc3cccc(-c4cccc(Cl)c4)c3)CC2)c1C,IC50,[17],1.87 µM (active)
same,IC50,[18],41 µM (active)
same,IC50,[19],4.61 µM (active)
COc1cc(OC)c(C(=O)CCCN2CCCC2)c(OC)c1 [BUFLOMEDIL],AC50,Cytochrome P450 1A2,inactive
same,AC50,Cytochrome P450 2C9,inactive
O=C(Nc1ccc(Cl)cc1)c1ccc(CN2CCc3ccccc3C2)cc1,EC50,HEK293 [20],2.29 µM (active)
same,IC50,HEK293 [21],2.11 µM (active)
same,IC50,HEK293 [22],> 20 µM (inactive)
same,IC50,HEK293 [23],5.45 µM (inactive)
same,IC50,Tumor necrosis factor,4.66 µM (active) and 491 nM (active)
same,IC50,[24],1.19 µM (active) and 833 nM (active)
same,IC50,[25],> 100 µM (inactive)
same,IC50,[26],22.1 µM (active)
same,IC50,HEK293 [27],> 20 µM (inactive)
O=C(NCCN1CCC2(CC1)C(=O)NCN2c1ccc(F)c(F)c1)c1cc2cc(F)ccc2[nH]1,IC50,Phospholipase D2,0.097 µM (active)

# From ChEMBL document CHEMBL1201862, “PubChem BioAssay data set” (2004)
